Test results reported in patent US5677459A, “Methods for the preparation of modulators of acetylcholine receptors” (Sibia Neurosciences, Inc., priority 1995, dated 1997).
Where two headings read alike, the source gives them in different places.

Tests used:
[1] = molecular target: T1, nicotinic acetylcholine receptor (Rattus norvegicus, UniProt P09483+P12390); test: ^3 H-Nicotine binding/displacement, rat cerebral membranes
T1 construct: the brains removed and the cerebral cortex dissected on ice; from tissue; host or cells: cerebral cortex synaptic membranes of male Sprague-Dawley rats
Description: ^3 H-Nicotine binding to rat cerebral membranes was performed according to modifications of the method of Flyn and Mash (J. Neurochem. 47:1948 (1986)). ^3 H-Nicotine (80 ci/mmol; New England Nuclear Corporation, Boston, Mass.) was used as the ligand for nicotinic acetylcholine receptor binding assays. All other reagents were purchased from the Sigma Chemical Co. (St. Louis, Mo.).
Male Sprague-Dawley rats (250-400 gm) were sacrificed by decapitation, the brains removed and the cerebral cortex dissected on ice. Synaptic membranes were prepared by homogenizing the cortical tissue in 20 volumes of ice-cold modified Tris buffer (50 mM Tris pH 7.4, 120 mM NaCl, 5 mM KCl, 2 mM EDTA, 1 mM PMSF) with a polytron (20 sec at setting 5-6) followed by centrifugation (15 min at 5,000×g) at 4° C. The resultant pellet was rehomogenized and centrifuged twice. The final pellet was resuspended in ice-cold assay buffer (50 mM Tris pH 7.4, 120 mM NaCl, 5 mM KCl, 2 mM CaCl2, 1 mM MgCl2) at a concentration of membrane equivalent to 1 gm wet weight cortex per 10 ml buffer. After protein determination the final membrane preparation was diluted with buffer to 3 mg protein/mi. This membrane preparation was used in either the fresh state or frozen (-70° C.) then thawed.
The binding assay is performed manually using 96-well plates, or using a Biomek automated work station (Beckman Instrument Co.). ^3 H-Nicotine was diluted in assay buffer to give a final concentration of 1.9 nM. The Biomek automated work station was programmed to automatically transfer 750 μl of assay buffer with ^3 H-nicotine, 230 μl of membrane preparation and 20 μl of solution containing the compound of interest in assay buffer, DMSO, ethanol:DMSO (1:1) or appropriate vehicle to the 96-well plate. Atropine was added to the incubation buffer at a final concentration of 3 μM to block binding to muscarinic acetylcholine receptor sites. The plates were maintained on ice for 60 min and the tissue-bound radioactivity was separated from the free by rapid filtration in a Brandel Harvester onto GF/C filters presoaked in 0.5% polyethyleneimine for at least 2 hr. The filters were washed with 4×2 ml of ice-cold assay buffer and filters were transferred to vials to which 4 ml of scintillation cocktail was added. The radioactivity was measured in a LS-6500 Beckman Liquid Scintillation Counter in an autodpm mode. Data were analyzed bylog-logit transformation or non-linear regression analysis (e.g., employing GraphPad Prism, available from GraphPad Software, San Diego, Calif.) to give IC50 values. Non-specific binding was defined by 10 μM cytisine.

[2] = molecular target: muscarinic acetylcholine receptors; test: ^3 H-QNB (quinuclidinyl benzilate) binding/displacement, rat cerebral membranes; settings: ^3 H-QNB 60 pM, rat cerebral membranes
[3] = test system: ^3 H-Dopamine release, rat striatal slices; test: Ligand-stimulated ^3 H-dopamine release from rat striatal slices; format: cell-based; settings: in vitro slices, 300 μM
[4] = test system: ^3 H-Norepinephrine release, rat hippocampus slices; test: Ligand-stimulated ^3 H-norepinephrine release from rat hippocampus slices; format: cell-based; settings: in vitro slices, 300 μM
[5] = test system: ^3 H-Norepinephrine release, rat thalamus slices; test: Ligand-stimulated ^3 H-norepinephrine release from rat thalamus slices; format: cell-based; settings: in vitro slices, 300 μM
[6] = test system: ^3 H-Norepinephrine release, rat prefrontal cortex slices; test: Ligand-stimulated ^3 H-norepinephrine release from rat prefrontal cortex slices; format: cell-based; settings: in vitro slices, 300 μM
Description: Measurement of ^3 H-dopamine release from rat striatal slices was performed according to the method of Sacaan et al. (J. Neurochem. 59:245 (1992)). Male Sprague-Dawley rats (250-300 g) were decapitated and the striata or olfactory tubercles dissected quickly on a cold glass surface. The tissue was chopped to a thickness of 300 μm with a McIlwain tissue chopper. After chopping again at right angles the tissue was dispersed and incubated for 10 min. at 37° C. in oxygenated Kreb's buffer. ^3 H-Dopamine (40 Ci/mmol, NEN- Dupont, Boston, Mass.) was added (50 nM) and the tissue was incubated for 30 min. in Kreb's buffer containing 10 μM pargyline and 0.5 mM ascorbic acid. Aliquots of the minced tissue were then transferred to chambers of a Brandel Superfusion system in which the tissue was supported on Whatman GF/B filter discs. The tissue was then superfused with buffer at a constant flow rate of 0.3 ml/min by means of a Brandel peristaltic pump. The perfusate was collected in plastic scintillation vials in 3-min fractions, and the radioactivity was estimated by scintillation spectrophotometry. The superfusate for the first 120 min was discarded. After two baseline fractions had been collected, the superfusion buffer was switched to fresh buffer with or without compound of interest. At the end of the experiment the filter and the tissue were removed, and the radiolabeled neurotransmitter content was estimated after extraction into scintillation fluid. The fractional efflux of radiolabeled neurotransmitter was estimated as the amount of radioactivity in the perfusate fraction relative to the total amount in the tissue.
Following essentially the same procedure as set forth above, the amount of ^3 H-norepinephrine released from rat hippocampus, thalamus and prefrontal cortex slices superfused with buffer containing (or lacking) compounds of interest was also measured.
Results of studies of the effects of an invention compound (as compared to the effect of nicotine) on the release of neurotransmitters from rat brain slices are presented in Table II. Results presented in Part A of the Table are expressed as the percent fractional release and results presented in Part B of the Table are expressed as a percentage, relative to nicotine response.

[7] = test system: ^3 H-Dopamine release, rat olfactory tubercles; test: Ligand-stimulated ^3 H-dopamine release from rat olfactory tubercles; format: cell-based; settings: in vitro slices, 300 μM
rats = test: Locomotor activity assay; format: in vivo, rat (male Sprague-Dawley); settings: Rattus norvegicus, sc, 20 mg/kg, s.c.
[8] = 1 h, 0-60 min, read-out: Ambulation (cross overs), percent of change from control
[9] = 1 h, 0-60 min, read-out: General Activity (beam breaks), percent of change from control
[10] = 2 h, 60-120 min, read-out: General Activity (beam breaks), percent of change from control
[11] = ^3 H-nicotine 1.9 nM, rat cerebral membranes, read-out: IC50, Nicotine
[12] = 2 h, 60-120 min, read-out: Ambulation (cross overs), percent of change from control

T1 sequence (P09483 31-630): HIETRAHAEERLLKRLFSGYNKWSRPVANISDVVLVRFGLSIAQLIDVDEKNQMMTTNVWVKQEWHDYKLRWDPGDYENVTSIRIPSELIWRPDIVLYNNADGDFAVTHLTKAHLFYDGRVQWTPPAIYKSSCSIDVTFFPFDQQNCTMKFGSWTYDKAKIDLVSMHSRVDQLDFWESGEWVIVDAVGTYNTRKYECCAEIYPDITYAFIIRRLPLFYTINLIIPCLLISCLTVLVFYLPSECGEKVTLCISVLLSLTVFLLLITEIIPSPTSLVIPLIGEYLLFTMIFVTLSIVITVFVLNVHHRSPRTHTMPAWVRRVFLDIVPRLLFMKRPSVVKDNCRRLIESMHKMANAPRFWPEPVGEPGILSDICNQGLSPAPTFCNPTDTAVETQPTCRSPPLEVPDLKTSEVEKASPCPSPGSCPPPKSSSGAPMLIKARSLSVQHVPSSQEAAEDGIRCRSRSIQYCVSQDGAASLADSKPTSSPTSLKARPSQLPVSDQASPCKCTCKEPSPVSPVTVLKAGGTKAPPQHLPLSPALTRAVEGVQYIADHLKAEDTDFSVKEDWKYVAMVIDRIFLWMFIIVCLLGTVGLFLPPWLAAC
T1 sequence (P12390 25-500): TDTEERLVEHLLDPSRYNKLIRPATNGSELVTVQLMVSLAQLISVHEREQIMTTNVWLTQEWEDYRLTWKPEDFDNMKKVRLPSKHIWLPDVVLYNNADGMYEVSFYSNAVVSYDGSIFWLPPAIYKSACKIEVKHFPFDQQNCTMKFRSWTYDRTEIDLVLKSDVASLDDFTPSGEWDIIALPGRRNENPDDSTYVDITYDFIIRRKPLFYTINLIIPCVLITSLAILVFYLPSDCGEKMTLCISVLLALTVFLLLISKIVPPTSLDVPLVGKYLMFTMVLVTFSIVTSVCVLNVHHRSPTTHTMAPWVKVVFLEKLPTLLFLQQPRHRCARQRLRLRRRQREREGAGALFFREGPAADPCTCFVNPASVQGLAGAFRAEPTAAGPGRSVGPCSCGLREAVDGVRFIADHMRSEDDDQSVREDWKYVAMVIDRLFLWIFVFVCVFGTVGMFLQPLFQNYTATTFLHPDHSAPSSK

Row | SMILES | IC50 ([1]; IC50, Nicotine) [nM] | IC50 [2] [nM] | percent fractional release, ^3 H-Dopamine, Striatum [3] [%] | percent fractional release, ^3 H-Norepinephrine, Hippocampus [4] [%] | percent fractional release, ^3 H-Norepinephrine, Thalamus [5] [%] | percent fractional release, ^3 H-Norepinephrine, Prefrontal Cortex [6] [%] | percent fractional release, ^3 H-Dopamine, Olfactory Tubercles [7] [%] | change in vivo at 20 mg/kg (rats; [8]) [%] | change in vivo at 20 mg/kg (rats; [9]) [%] | change in vivo at 20 mg/kg (rats; [10]) [%] | IC50 [1, 11] [nM] | change in vivo at 20 mg/kg (rats; [12]) [%]
1 | C#Cc1cncc(C2CCCN2C)c1.O=C(O)/C=C/C(=O)O (racemic) [R^5 = ethynyl (racemic), 5-Ethynyl-3-(1-methyl-2-pyrrolidinyl)pyridine fumarate] | 4.6 | 10100 | 2.56 | 0.69 | 0.31 | 0.97 | 6.68 | 631 | 509 | 628 |  | 
2 | CN1CCCC1c1cncc(-c2ccc(O)c(Cl)c2)c1.O=C(O)/C=C/C(=O)O (stereo not shown) [R^5 = 3-chloro-4-hydroxyphenyl, 5-(4-hydroxy-3-chlorophenyl)-3-(1-methyl-2-pyrrolidinyl)pyridine fumarate] |  | > 10000 | 8.34 | 2.5 | 3.23 | 2.94 | 11.4 | 63 | 68 | -17 | 28 | -36
3 | CN1CCCC1c1cncc(-c2cccc(Cl)c2)c1.O=C(O)/C=C/C(=O)O (stereo not shown) [R^5 = 3-chlorophenyl, 5-(3-Chlorophenyl)-3-(1-methyl-2-pyrrolidinyl) pyridine fumarate] |  | 3700 | 2.0 | 1.45 | 1.48 | 1.7 | 3.25 | 48 | 70 | 220 | 120 | 268
4 | COc1ccc(-c2cncc(C3CCCN3C)c2)cc1F.O=C(O)/C=C/C(=O)O (stereo not shown) [R^5 = 3-fluoro-4-methoxyphenyl, 5-(3-Fluoro-4-methoxyphenyl)-3-(1-methyl-2-pyrrolidinyl)pyridine fumarate] |  | 30500 | 3.1 | 0.73 | 1.75 | 2.0 | 2.3 | 58 | 78 | 202 | 27 | 268
